Experimental data taken from patent US8802895B2, “Amide derivatives of benzene-sulfonanilide, pharmaceutical composition thereof and method for cancer treatment using the same” (Cleveland State University, priority 2010, dated 2014).

Assays:
Assay type in all cases: cell-based
EKVX = assay: NCIDTP 60 cancer cell lines screening, Non-Small Cell Lung Cancer panel
MDA-MB-231/ATCC = assay: NCIDTP 60 cancer cell lines screening, Breast Cancer panel
OVCAR-8 = assay: NCIDTP 60 cancer cell lines screening, Ovarian Cancer panel
HS 578T = assay: NCIDTP 60 cancer cell lines screening, Breast Cancer panel
RXF 393 = assay: NCIDTP 60 cancer cell lines screening, Renal Cancer panel
SNB-75 = assay: NCIDTP 60 cancer cell lines screening, CNS Cancer panel
OVCAR-3 = assay: NCIDTP 60 cancer cell lines screening, Ovarian Cancer panel
SW-620 = assay: NCIDTP 60 cancer cell lines screening, Colon Cancer panel
TK-10 = assay: NCIDTP 60 cancer cell lines screening, Renal Cancer panel
KM12 = assay: NCIDTP 60 cancer cell lines screening, Colon Cancer panel
ACHN = assay: NCIDTP 60 cancer cell lines screening, Renal Cancer panel
MDA-MB-468 = assay: NCIDTP 60 cancer cell lines screening, Breast Cancer panel
HT29 = assay: NCIDTP 60 cancer cell lines screening, Colon Cancer panel
UACC-62 = assay: NCIDTP 60 cancer cell lines screening, Melanoma panel
IGROV1 = assay: NCIDTP 60 cancer cell lines screening, Ovarian Cancer panel
K-562 = assay: NCIDTP 60 cancer cell lines screening, Leukemia panel
A549/ATCC = assay: NCIDTP 60 cancer cell lines screening, Non-Small Cell Lung Cancer panel

Cc1ccc(C)c(COc2cc(NC(=O)c3ccc4c(c3)OCO4)ccc2N(C)S(C)(=O)=O)c1 [Compound #10, Benzo[1,3]dioxole-5-carboxylic acid [3-(2,5-dimethyl-benzyloxy)-4-(methanesulfonyl-methyl-amino)-phenyl]-amide]
TGI (EKVX): >1.00E−4 Molar
GI50 (EKVX; Homo sapiens): 598 nM
CC50 (EKVX; Homo sapiens, read-out: LC50): > 100000 nM
Percent Growth (EKVX; Log10 Concentration −4.0 Molar): 33%
Percent Growth (EKVX; Log10 Concentration −5.0 Molar): 25%
Percent Growth (EKVX; Log10 Concentration −6.0 Molar): 39%
Percent Growth (EKVX; Log10 Concentration −7.0 Molar): 88%
Percent Growth (EKVX; Log10 Concentration −8.0 Molar): 94%
CC50 (MDA-MB-231/ATCC; Homo sapiens, MDA-MB-231, read-out: LC50): > 100000 nM
GI50 (MDA-MB-231/ATCC; Homo sapiens, MDA-MB-231/ATCC): 256 nM
TGI (MDA-MB-231/ATCC; MDA-MB-231/ATCC): 9.26E−7 Molar
Percent Growth (MDA-MB-231/ATCC; MDA-MB-231/ATCC, Log10 Concentration −4.0 Molar): −7%
Percent Growth (MDA-MB-231/ATCC; MDA-MB-231/ATCC, Log10 Concentration −5.0 Molar): −17%
Percent Growth (MDA-MB-231/ATCC; MDA-MB-231/ATCC, Log10 Concentration −6.0 Molar): −3%
Percent Growth (MDA-MB-231/ATCC; MDA-MB-231/ATCC, Log10 Concentration −7.0 Molar): 87%
Percent Growth (MDA-MB-231/ATCC; MDA-MB-231/ATCC, Log10 Concentration −8.0 Molar): 90%
GI50 (OVCAR-8; Homo sapiens, OVCAR-8): 265 nM
CC50 (OVCAR-8; Homo sapiens, OVCAR-8, read-out: LC50): > 100000 nM
TGI (OVCAR-8; OVCAR-8): >1.00E−4 Molar
Percent Growth (OVCAR-8; OVCAR-8, Log10 Concentration −4.0 Molar): 6%
Percent Growth (OVCAR-8; OVCAR-8, Log10 Concentration −5.0 Molar): 8%
Percent Growth (OVCAR-8; OVCAR-8, Log10 Concentration −6.0 Molar): 10%
Percent Growth (OVCAR-8; OVCAR-8, Log10 Concentration −7.0 Molar): 80%
Percent Growth (OVCAR-8; OVCAR-8, Log10 Concentration −8.0 Molar): 94%
Percent Growth (HS 578T; HS 578T, Log10 Concentration −4.0 Molar): 3%
Percent Growth (HS 578T; HS 578T, Log10 Concentration −5.0 Molar): −9%
Percent Growth (HS 578T; HS 578T, Log10 Concentration −6.0 Molar): −5%
Percent Growth (HS 578T; HS 578T, Log10 Concentration −7.0 Molar): 47%
Percent Growth (HS 578T; HS 578T, Log10 Concentration −8.0 Molar): 90%
CC50 (HS 578T; Homo sapiens, Hs-578T, read-out: LC50): > 100000 nM
GI50 (HS 578T; Homo sapiens, HS 578T): 87 nM
GI50 (RXF 393; Homo sapiens, RXF 393): 128 nM
CC50 (RXF 393; Homo sapiens, RXF 393, read-out: LC50): > 100000 nM
TGI (RXF 393; RXF 393): 4.03E−7 Molar
Percent Growth (RXF 393; RXF 393, Log10 Concentration −4.0 Molar): −18%
Percent Growth (RXF 393; RXF 393, Log10 Concentration −5.0 Molar): −20%
Percent Growth (RXF 393; RXF 393, Log10 Concentration −6.0 Molar): −39%
Percent Growth (RXF 393; RXF 393, Log10 Concentration −7.0 Molar): 61%
Percent Growth (RXF 393; RXF 393, Log10 Concentration −8.0 Molar): 81%
GI50 (SNB-75; Homo sapiens, SNB-75): 266 nM
CC50 (SNB-75; Homo sapiens, SNB-75, read-out: LC50): > 100000 nM
Percent Growth (SNB-75; SNB-75, Log10 Concentration −4.0 Molar): 3%
Percent Growth (SNB-75; SNB-75, Log10 Concentration −5.0 Molar): −6%
Percent Growth (SNB-75; SNB-75, Log10 Concentration −6.0 Molar): −5%
Percent Growth (SNB-75; SNB-75, Log10 Concentration −7.0 Molar): 91%
Percent Growth (SNB-75; SNB-75, Log10 Concentration −8.0 Molar): 86%
TGI (OVCAR-3): 1.66E−7 Molar
GI50 (OVCAR-3; Homo sapiens): 39.6 nM
Percent Growth (OVCAR-3; Log10 Concentration −4.0 Molar): −32%
Percent Growth (OVCAR-3; Log10 Concentration −5.0 Molar): −44%
Percent Growth (OVCAR-3; Log10 Concentration −6.0 Molar): −67%
Percent Growth (OVCAR-3; Log10 Concentration −7.0 Molar): 19%
Percent Growth (OVCAR-3; Log10 Concentration −8.0 Molar): 96%
GI50 (SW-620; Homo sapiens, SW-620): 112 nM
CC50 (SW-620; Homo sapiens, SW-620, read-out: LC50): > 100000 nM
TGI (SW-620; SW-620): >1.00E−4 Molar
Percent Growth (SW-620; SW-620, Log10 Concentration −4.0 Molar): 16%
Percent Growth (SW-620; SW-620, Log10 Concentration −5.0 Molar): 21%
Percent Growth (SW-620; SW-620, Log10 Concentration −6.0 Molar): 19%
Percent Growth (SW-620; SW-620, Log10 Concentration −7.0 Molar): 52%
Percent Growth (SW-620; SW-620, Log10 Concentration −8.0 Molar): 92%
GI50 (TK-10; Homo sapiens, TK-10): 354 nM
CC50 (TK-10; Homo sapiens, TK-10, read-out: LC50): > 100000 nM
TGI (TK-10; TK-10): >1.00E−4 Molar
Percent Growth (TK-10; TK-10, Log10 Concentration −4.0 Molar): 9%
Percent Growth (TK-10; TK-10, Log10 Concentration −5.0 Molar): 6%
Percent Growth (TK-10; TK-10, Log10 Concentration −6.0 Molar): 18%
Percent Growth (TK-10; TK-10, Log10 Concentration −7.0 Molar): 88%
Percent Growth (TK-10; TK-10, Log10 Concentration −8.0 Molar): 92%
GI50 (KM12; Homo sapiens, KM12): 85.5 nM
CC50 (KM12; Homo sapiens, KM12, read-out: LC50): > 100000 nM
TGI (KM12; KM12): 1.13E−6 Molar
Percent Growth (KM12; KM12, Log10 Concentration −4.0 Molar): −29%
Percent Growth (KM12; KM12, Log10 Concentration −5.0 Molar): −19%
Percent Growth (KM12; KM12, Log10 Concentration −6.0 Molar): 1%
Percent Growth (KM12; KM12, Log10 Concentration −7.0 Molar): 47%
Percent Growth (KM12; KM12, Log10 Concentration −8.0 Molar): 93%
TGI (ACHN): >1.00E−4 Molar
GI50 (ACHN; Homo sapiens): 687 nM
CC50 (ACHN; Homo sapiens, read-out: LC50): > 100000 nM
Percent Growth (ACHN; Log10 Concentration −4.0 Molar): 23%
Percent Growth (ACHN; Log10 Concentration −5.0 Molar): 26%
Percent Growth (ACHN; Log10 Concentration −6.0 Molar): 45%
Percent Growth (ACHN; Log10 Concentration −7.0 Molar): 75%
Percent Growth (ACHN; Log10 Concentration −8.0 Molar): 95%
GI50 (MDA-MB-468; Homo sapiens, MDA-MB-468): 155 nM
CC50 (MDA-MB-468; Homo sapiens, MDA-MB-468, read-out: LC50): 19900 nM
TGI (MDA-MB-468; MDA-MB-468): 4.01E−7 Molar
Percent Growth (MDA-MB-468; MDA-MB-468, Log10 Concentration −4.0 Molar): −56%
Percent Growth (MDA-MB-468; MDA-MB-468, Log10 Concentration −5.0 Molar): −47%
Percent Growth (MDA-MB-468; MDA-MB-468, Log10 Concentration −6.0 Molar): −48%
Percent Growth (MDA-MB-468; MDA-MB-468, Log10 Concentration −7.0 Molar): 73%
Percent Growth (MDA-MB-468; MDA-MB-468, Log10 Concentration −8.0 Molar): 85%
TGI (HT29; HT29): 4.19E−7 Molar
Percent Growth (HT29; HT29, Log10 Concentration −4.0 Molar): −48%
Percent Growth (HT29; HT29, Log10 Concentration −5.0 Molar): −48%
Percent Growth (HT29; HT29, Log10 Concentration −6.0 Molar): −26%
Percent Growth (HT29; HT29, Log10 Concentration −7.0 Molar): 44%
Percent Growth (HT29; HT29, Log10 Concentration −8.0 Molar): 101%
CC50 (HT29; Homo sapiens, HT-29, read-out: LC50): > 100000 nM
GI50 (HT29; Homo sapiens, HT-29, HT29): 77.2 nM
inhibition of cancer cell growth (NCI screening results, in words) (HT29; many types of cancer cell including HT29 colon cancer cells): very potent to inhibit the growth
GI50 (UACC-62; Homo sapiens, UACC-62): 414 nM
CC50 (UACC-62; Homo sapiens, UACC-62, read-out: LC50): > 100000 nM
TGI (UACC-62; UACC-62): >1.00E−4 Molar
Percent Growth (UACC-62; UACC-62, Log10 Concentration −4.0 Molar): 14%
Percent Growth (UACC-62; UACC-62, Log10 Concentration −5.0 Molar): 15%
Percent Growth (UACC-62; UACC-62, Log10 Concentration −6.0 Molar): 37%
Percent Growth (UACC-62; UACC-62, Log10 Concentration −7.0 Molar): 71%
Percent Growth (UACC-62; UACC-62, Log10 Concentration −8.0 Molar): 94%
CC50 (IGROV1; Homo sapiens, IGROV-1, read-out: LC50): > 100000 nM
GI50 (IGROV1; Homo sapiens, IGROV-1, IGROV1): 237 nM
TGI (IGROV1; IGROV1): >1.00E−4 Molar
Percent Growth (IGROV1; IGROV1, Log10 Concentration −4.0 Molar): 13%
Percent Growth (IGROV1; IGROV1, Log10 Concentration −5.0 Molar): 13%
Percent Growth (IGROV1; IGROV1, Log10 Concentration −6.0 Molar): 18%
Percent Growth (IGROV1; IGROV1, Log10 Concentration −7.0 Molar): 69%
Percent Growth (IGROV1; IGROV1, Log10 Concentration −8.0 Molar): 92%
CC50 (K-562; Homo sapiens, K562, read-out: LC50): > 100000 nM
GI50 (K-562; Homo sapiens, K562, K-562): 40.3 nM
TGI (K-562; K-562): >1.00E−4 Molar
Percent Growth (K-562; K-562, Log10 Concentration −4.0 Molar): 9%
Percent Growth (K-562; K-562, Log10 Concentration −5.0 Molar): 9%
Percent Growth (K-562; K-562, Log10 Concentration −6.0 Molar): 11%
Percent Growth (K-562; K-562, Log10 Concentration −7.0 Molar): 20%
Percent Growth (K-562; K-562, Log10 Concentration −8.0 Molar): 96%
TGI (A549/ATCC; A549/ATCC): 1.36E−5 Molar
Percent Growth (A549/ATCC; A549/ATCC, Log10 Concentration −4.0 Molar): −29%
Percent Growth (A549/ATCC; A549/ATCC, Log10 Concentration −5.0 Molar): 5%
Percent Growth (A549/ATCC; A549/ATCC, Log10 Concentration −6.0 Molar): 12%
Percent Growth (A549/ATCC; A549/ATCC, Log10 Concentration −7.0 Molar): 80%
Percent Growth (A549/ATCC; A549/ATCC, Log10 Concentration −8.0 Molar): 97%
CC50 (A549/ATCC; Homo sapiens, A549, read-out: LC50): > 100000 nM
GI50 (A549/ATCC; Homo sapiens, A549/ATCC): 278 nM
